Source: US20250231185A1, “Coronavirus T Cell Epitopes, Megapools and Uses Thereof” (La Jolla Institute for Immunology, priority 2021, published 2025)

Each substance was assayed on CD8+ T cells (assay: Meta-analysis of published SARS-CoV-2 CD8 T cell epitope data curated in the IEDB (25 studies)). Details: CD8-restricted SARS-CoV-2 epitopes; Yes = recognized by 3 or more donors/different studies.
Type: cell-based, human
With 1132 (YLYALVYFL) [compound 1132] the Dominant was “Yes (more dominant epitopes are defined by being recognized by 3 or more donors/different studies)”.
With 1133 (VYFLQSINF) [compound 1133] the Dominant was “Yes (more dominant epitopes are defined by being recognized by 3 or more donors/different studies)”.
In the case of 1140 (LLYDANYFL) [compound 1140], the Dominant is reported as “Yes (more dominant epitopes are defined by being recognized by 3 or more donors/different studies)”.
1150 (FTSDYYQLY) [compound 1150] was tested, and the Dominant was “Yes (more dominant epitopes are defined by being recognized by 3 or more donors/different studies)”.
For 1152 (YYQLYSTQL) [compound 1152], the Dominant was “Yes (more dominant epitopes are defined by being recognized by 3 or more donors/different studies)”.
1157 (HLVDFQVTI) [compound 1157] was tested, and the Dominant was “Yes (more dominant epitopes are defined by being recognized by 3 or more donors/different studies)”.
In the case of 1173 (QLRARSVSPK) [compound 1173], the Dominant is reported as “Yes (more dominant epitopes are defined by being recognized by 3 or more donors/different studies)”.
With 1174 (RARSVSPKL) [compound 1174] the Dominant was “Yes (more dominant epitopes are defined by being recognized by 3 or more donors/different studies)”.
With 1176 (KLFIRQEEV) [compound 1176] the Dominant was “Yes (more dominant epitopes are defined by being recognized by 3 or more donors/different studies)”.
With 1178 (VQELYSPIFLIV) [compound 1178] the Dominant was “Yes (more dominant epitopes are defined by being recognized by 3 or more donors/different studies)”.
With 1180 (VFITLCFTLK) [compound 1180] the Dominant was “Yes (more dominant epitopes are defined by being recognized by 3 or more donors/different studies)”.
For 1181 (IMLIIFWFSL) [compound 1181], the Dominant was “Yes (more dominant epitopes are defined by being recognized by 3 or more donors/different studies)”.
In the case of 1187 (IQYIDIGNY) [compound 1187], the Dominant is reported as “Yes (more dominant epitopes are defined by being recognized by 3 or more donors/different studies)”.
With 1190 (KLGSLVVRC) [compound 1190] the Dominant was “Yes (more dominant epitopes are defined by being recognized by 3 or more donors/different studies)”.
In the case of 1192 (LEYHDVRVVL) [compound 1192], the Dominant is reported as “Yes (more dominant epitopes are defined by being recognized by 3 or more donors/different studies)”.
1204 (YTNSFTRGVY) [compound 1204] was tested, and the Dominant was “Yes (more dominant epitopes are defined by being recognized by 3 or more donors/different studies)”.
In the case of 1212 (STQDLFLPFF) [compound 1212], the Dominant is reported as “Yes (more dominant epitopes are defined by being recognized by 3 or more donors/different studies)”.
1220 (RFDNPVLPF) [compound 1220] was tested, and the Dominant was “Yes (more dominant epitopes are defined by being recognized by 3 or more donors/different studies)”.
With 1225 (GVYFASTEK) [compound 1225] the Dominant was “Yes (more dominant epitopes are defined by being recognized by 3 or more donors/different studies)”.
1226 (TEKSNIIRGW) [compound 1226] was tested, and the Dominant was “Yes (more dominant epitopes are defined by being recognized by 3 or more donors/different studies)”.
With 1228 (TLDSKTQSL) [compound 1228] the Dominant was “Yes (more dominant epitopes are defined by being recognized by 3 or more donors/different studies)”.
1229 (FCNDPFLGVYY) [compound 1229] was tested, and the Dominant was “Yes (more dominant epitopes are defined by being recognized by 3 or more donors/different studies)”.
In the case of 1233 (KSWMESEFRVY) [compound 1233], the Dominant is reported as “Yes (more dominant epitopes are defined by being recognized by 3 or more donors/different studies)”.
For 1238 (SSANNCTFEY) [compound 1238], the Dominant was “Yes (more dominant epitopes are defined by being recognized by 3 or more donors/different studies)”.
For 1245 (FVFKNIDGY) [compound 1245], the Dominant was “Yes (more dominant epitopes are defined by being recognized by 3 or more donors/different studies)”.
For 1248 (IYSKHTPINL) [compound 1248], the Dominant was “Yes (more dominant epitopes are defined by being recognized by 3 or more donors/different studies)”.
With 1249 (TPINLVRDL) [compound 1249] the Dominant was “Yes (more dominant epitopes are defined by being recognized by 3 or more donors/different studies)”.
In the case of 1251 (LPQGFSAL) [compound 1251], the Dominant is reported as “Yes (more dominant epitopes are defined by being recognized by 3 or more donors/different studies)”.
In the case of 1258 (LLALHRSYL) [compound 1258], the Dominant is reported as “Yes (more dominant epitopes are defined by being recognized by 3 or more donors/different studies)”.
1259 (WTAGAAAYY) [compound 1259] was tested, and the Dominant was “Yes (more dominant epitopes are defined by being recognized by 3 or more donors/different studies)”.
With 1260 (WTAGAAAYYVGY) [compound 1260] the Dominant was “Yes (more dominant epitopes are defined by being recognized by 3 or more donors/different studies)”.
For 1263 (YYVGYLQPRTF) [compound 1263], the Dominant was “Yes (more dominant epitopes are defined by being recognized by 3 or more donors/different studies)”.
For 1266 (YLQPRTFLL) [compound 1266], the Dominant was “Yes (more dominant epitopes are defined by being recognized by 3 or more donors/different studies)”.
With 1286 (RISNCVADY) [compound 1286] the Dominant was “Yes (more dominant epitopes are defined by being recognized by 3 or more donors/different studies)”.
1287 (CVADYSVLY) [compound 1287] was tested, and the Dominant was “Yes (more dominant epitopes are defined by being recognized by 3 or more donors/different studies)”.
In the case of 1291 (KCYGVSPTK) [compound 1291], the Dominant is reported as “Yes (more dominant epitopes are defined by being recognized by 3 or more donors/different studies)”.
1296 (KIADYNYKL) [compound 1296] was tested, and the Dominant was “Yes (more dominant epitopes are defined by being recognized by 3 or more donors/different studies)”.
In the case of 1297 (KLPDDFTGCV) [compound 1297], the Dominant is reported as “Yes (more dominant epitopes are defined by being recognized by 3 or more donors/different studies)”.
In the case of 1298 (NLDSKVGGNY) [compound 1298], the Dominant is reported as “Yes (more dominant epitopes are defined by being recognized by 3 or more donors/different studies)”.

Same assay, conditions: CD8S (D) Megapool, antigen S; dominant = recognized in 3 or more donors/studies
With 1469 (YTNSFTRGVY) [compound 1469] the Dominant was “Yes (more dominant epitopes are defined by being recognized by 3 or more donors/different studies)”.
1470 (STQDLFLPFF) [compound 1470] was tested, and the Dominant was “Yes (more dominant epitopes are defined by being recognized by 3 or more donors/different studies)”.
In the case of 1471 (RFDNPVLPF) [compound 1471], the Dominant is reported as “Yes (more dominant epitopes are defined by being recognized by 3 or more donors/different studies)”.
In the case of 1472 (GVYFASTEK) [compound 1472], the Dominant is reported as “Yes (more dominant epitopes are defined by being recognized by 3 or more donors/different studies)”.
For 1473 (TEKSNIIRGW) [compound 1473], the Dominant was “Yes (more dominant epitopes are defined by being recognized by 3 or more donors/different studies)”.
1474 (TLDSKTQSL) [compound 1474] was tested, and the Dominant was “Yes (more dominant epitopes are defined by being recognized by 3 or more donors/different studies)”.
1475 (SSANNCTFEY) [compound 1475] was tested, and the Dominant was “Yes (more dominant epitopes are defined by being recognized by 3 or more donors/different studies)”.
For 1476 (FVFKNIDGY) [compound 1476], the Dominant was “Yes (more dominant epitopes are defined by being recognized by 3 or more donors/different studies)”.
In the case of 1477 (IYSKHTPINL) [compound 1477], the Dominant is reported as “Yes (more dominant epitopes are defined by being recognized by 3 or more donors/different studies)”.
With 1478 (TPINLVRDL) [compound 1478] the Dominant was “Yes (more dominant epitopes are defined by being recognized by 3 or more donors/different studies)”.
1479 (LLALHRSYL) [compound 1479] was tested, and the Dominant was “Yes (more dominant epitopes are defined by being recognized by 3 or more donors/different studies)”.
With 1480 (WTAGAAAYY) [compound 1480] the Dominant was “Yes (more dominant epitopes are defined by being recognized by 3 or more donors/different studies)”.
With 1481 (YLQPRTFLL) [compound 1481] the Dominant was “Yes (more dominant epitopes are defined by being recognized by 3 or more donors/different studies)”.
1482 (RISNCVADY) [compound 1482] was tested, and the Dominant was “Yes (more dominant epitopes are defined by being recognized by 3 or more donors/different studies)”.
1483 (CVADYSVLY) [compound 1483] was tested, and the Dominant was “Yes (more dominant epitopes are defined by being recognized by 3 or more donors/different studies)”.
In the case of 1484 (KCYGVSPTK) [compound 1484], the Dominant is reported as “Yes (more dominant epitopes are defined by being recognized by 3 or more donors/different studies)”.
For 1485 (KIADYNYKL) [compound 1485], the Dominant was “Yes (more dominant epitopes are defined by being recognized by 3 or more donors/different studies)”.
For 1486 (KLPDDFTGCV) [compound 1486], the Dominant was “Yes (more dominant epitopes are defined by being recognized by 3 or more donors/different studies)”.
With 1487 (NLDSKVGGNY) [compound 1487] the Dominant was “Yes (more dominant epitopes are defined by being recognized by 3 or more donors/different studies)”.
In the case of 1488 (NYNYLYRLF) [compound 1488], the Dominant is reported as “Yes (more dominant epitopes are defined by being recognized by 3 or more donors/different studies)”.
For 1489 (YFPLQSYGF) [compound 1489], the Dominant was “Yes (more dominant epitopes are defined by being recognized by 3 or more donors/different studies)”.
For 1490 (FQPTNGVGY) [compound 1490], the Dominant was “Yes (more dominant epitopes are defined by being recognized by 3 or more donors/different studies)”.
With 1491 (GPKKSTNLV) [compound 1491] the Dominant was “Yes (more dominant epitopes are defined by being recognized by 3 or more donors/different studies)”.
For 1493 (IGAEHVNNSY) [compound 1493], the Dominant was “Yes (more dominant epitopes are defined by being recognized by 3 or more donors/different studies)”.
With 1494 (SPRRARSVA) [compound 1494] the Dominant was “Yes (more dominant epitopes are defined by being recognized by 3 or more donors/different studies)”.
With 1495 (SVASQSIIAY) [compound 1495] the Dominant was “Yes (more dominant epitopes are defined by being recognized by 3 or more donors/different studies)”.
